Data set [1] is described as follows: Toxicity in BALB/c nude mouse xenografted with human NCI-H358 cells assessed as effect on body weight at 10 to 20 mg/kg/day, ip for 21 days and measured every 3 day. It is filed as organism-based. The conditions noted are these: in vivo, 504 h, dose 10-20 mg/kg/day, time 21 day.
Data set [2] deals with SK-LU-1. In words: Antiproliferative activity against human SK-LU-1 cells harboring KRAS G12D mutant assessed as cell growth inhibition incubated for 7 days by CellTiter-Glo 3D cell viability assay. It is filed as functional, cell-based. The conditions noted are these: SK-LU-1, 168 h. Background: ATP-based viability assays read luminescence as a measure of living cells.
The test system of data set [3] is NCI-H358. Briefly: Antiproliferative activity against human NCI-H358 cells harboring KRAS G12C mutant assessed as growth inhibition incubated for 7 days by CellTiter-Glo 3D cell viability assay. The class given is functional, cell-based. The note with it: NCI-H358, 168 h.
The test system of data set [4] is A549. Briefly: Antiproliferative activity against human A549 cells harboring KRAS G12S mutant assessed as cell growth inhibition incubated for 7 days by CellTiter-Glo 3D cell viability assay. The note with it: A549, 168 h. It is filed as functional, cell-based.
Data set [5] is described as follows: Acute toxicity in BALB/c mouse assessed as change in body weight at 10 mg/kg, ip once daily for 7 days. It is filed as organism-based. The conditions noted are these: in vivo, 168 h, time 7 day.
Data set [6] is described as follows: Half life in BALB/c mouse at 10 mg/kg, ip measured after 24 hrs by LC-MS/MS analysis. It is filed as ADME, organism-based. The note with it: in vivo.
In data set [7] the test system is Mus musculus. In words: In vivo degradation of SOS1 in BALB/c nude mouse xenografted with human NCI-H358 cells at 20 to 50 mg/kg, IT incubated for 21 days by immunohistochemistry analysis. The class given is functional, organism-based. The conditions noted are these: dose 20-50 mg/kg, time 21.0 day. (A xenograft is tissue or cells of one species grown in another, often human tumour cells in immunodeficient mice.)

The nature of data set [8]: Effect of compound on human ASPC1 cells harboring KRAS G12D mutant assessed as inhibition of ERK phosphorylation incubated for 24 hr by Western blot analysis. It is filed as functional, cell-based. The conditions noted are these: ASPC1, 24 h. Background: Immunoblotting shows a protein as a band on a membrane.
The subject of data set [9] is NCI-H358. In words: Antitumor activity against human NCI-H358 cells xenografted in BALB/c nude mouse assessed as tumor growth inhibition at 10 mg/kg/day, ip incubated for 21 days. It is filed as functional. The note with it: NCI-H358, 504 h, time 21 day, read-out: TGI.
The nature of data set [10]: Observed AUC (infinity) in BALB/c mouse at 10 mg/kg, ip measured after 24 hrs by LC-MS/MS analysis. The class given is ADME, organism-based. On the set-up: dose 10 mg/kg, time 24 hrs, route ip. The conditions noted are these: in vivo.
Data set [11] can be described thus: Cmax in BALB/c mouse at 10 mg/kg, ip measured after 24 hrs by LC-MS/MS analysis. The class given is ADME, organism-based. On the set-up: dose 10 mg/kg, time 24 hrs, route ip. The note with it: in vivo.
In data set [12] the target is von Hippel-Lindau disease tumor suppressor/Son of sevenless homolog 1 (Homo sapiens, UniProt Q07889+P40337, G12C). In words: Protac activity at VHL/SOS1 in human MIA PaCa-2 cells harboring KRAS G12C mutant assessed as SOS1 protein degradation incubated for 24 hr by Western blot analysis. It is filed as cell-based.
Sequence of von Hippel-Lindau disease tumor suppressor/Son of sevenless homolog 1 (P40337 whole entry, looked up, stated change not applied): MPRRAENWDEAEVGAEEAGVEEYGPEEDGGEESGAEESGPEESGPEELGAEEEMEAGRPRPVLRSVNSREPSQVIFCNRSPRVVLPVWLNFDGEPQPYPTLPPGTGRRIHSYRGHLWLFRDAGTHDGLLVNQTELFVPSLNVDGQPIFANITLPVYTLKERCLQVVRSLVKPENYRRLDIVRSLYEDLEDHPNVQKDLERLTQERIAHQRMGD
Sequence of von Hippel-Lindau disease tumor suppressor/Son of sevenless homolog 1 (Q07889 whole entry, looked up, stated change not applied): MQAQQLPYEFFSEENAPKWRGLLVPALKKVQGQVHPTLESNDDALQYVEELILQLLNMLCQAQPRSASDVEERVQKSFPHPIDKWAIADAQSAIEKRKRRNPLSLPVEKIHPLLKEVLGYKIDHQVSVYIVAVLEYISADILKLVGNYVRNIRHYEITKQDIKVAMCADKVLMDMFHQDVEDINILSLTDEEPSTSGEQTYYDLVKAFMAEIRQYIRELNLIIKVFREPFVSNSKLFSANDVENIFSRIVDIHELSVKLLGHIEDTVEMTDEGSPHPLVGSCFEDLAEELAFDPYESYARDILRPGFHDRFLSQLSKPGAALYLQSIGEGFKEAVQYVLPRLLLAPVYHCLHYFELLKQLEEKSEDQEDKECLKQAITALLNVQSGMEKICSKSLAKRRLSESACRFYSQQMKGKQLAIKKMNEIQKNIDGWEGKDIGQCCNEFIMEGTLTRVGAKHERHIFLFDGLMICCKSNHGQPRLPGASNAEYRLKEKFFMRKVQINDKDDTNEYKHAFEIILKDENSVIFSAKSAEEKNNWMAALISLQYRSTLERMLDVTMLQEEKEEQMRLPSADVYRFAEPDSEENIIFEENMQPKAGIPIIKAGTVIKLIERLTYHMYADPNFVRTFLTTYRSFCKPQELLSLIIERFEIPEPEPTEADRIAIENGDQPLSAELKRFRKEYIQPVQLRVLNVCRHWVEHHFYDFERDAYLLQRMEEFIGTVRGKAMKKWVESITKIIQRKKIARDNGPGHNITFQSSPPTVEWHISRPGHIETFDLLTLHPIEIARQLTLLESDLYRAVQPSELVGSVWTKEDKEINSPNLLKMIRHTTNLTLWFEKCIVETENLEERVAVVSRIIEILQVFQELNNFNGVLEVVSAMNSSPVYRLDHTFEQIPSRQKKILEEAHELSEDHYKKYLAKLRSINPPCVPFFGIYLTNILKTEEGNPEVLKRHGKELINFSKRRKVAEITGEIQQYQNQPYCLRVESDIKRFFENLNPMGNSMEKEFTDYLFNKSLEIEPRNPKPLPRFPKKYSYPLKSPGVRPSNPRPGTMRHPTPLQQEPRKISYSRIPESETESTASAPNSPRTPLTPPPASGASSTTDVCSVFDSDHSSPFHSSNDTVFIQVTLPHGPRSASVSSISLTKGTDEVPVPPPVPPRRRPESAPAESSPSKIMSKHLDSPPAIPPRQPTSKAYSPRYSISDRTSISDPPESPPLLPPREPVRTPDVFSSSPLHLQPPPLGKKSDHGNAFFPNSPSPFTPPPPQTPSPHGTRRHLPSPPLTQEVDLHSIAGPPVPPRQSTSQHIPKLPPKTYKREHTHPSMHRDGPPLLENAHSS
Data set [13] deals with SW-620. Briefly: Antiproliferative activity against human SW620 cells harboring KRAS G12V mutant assessed as cell growth inhibition incubated for 7 days by CellTiter-Glo 3D cell viability assay. The conditions noted are these: SW-620, 168 h. It is filed as functional, cell-based.
Data set [14] can be described thus: Binding affinity to SOS1/VCB E3 ligase (unknown origin) assessed as ternary dissociation constant by surface plasmon resonance analysis. Further details: species or system Homo sapiens.
Data set [15] deals with NCI-H358. Briefly: Effect of compound on human NCI-H358 cells assessed as increase in phophorylated ERK level at 1 uM incubated for 4 hr by Western blot analysis. The class given is functional, cell-based.

Data on 1 molecule can be found in ChEMBL document CHEMBL5154769, “Discovery of the First-in-Class Agonist-Based SOS1 PROTACs Effective in Human Cancer Cells Harboring Various KRAS Mutations” (J Med Chem, 2022).

Calls of active or inactive are those of the source. The rule behind the calls is not given here.

Regarding `Cc1cc(Cn2c(N3CC4(CNC4)C3)nc3c(N4CCN(CCCCCCCCC(=O)N[C@H](C(=O)N5C[C@H](O)C[C@H]5C(=O)N[C@@H](C)c5ccc(-c6scnc6C)cc5)C(C)(C)C)CC4)cc(Cl)cc32)cc(C)c1F`, the Activity result in data set [1] and in data set [5] was “Non-Toxic” throughout. Further, the IC50 in [2] turned out to be 115 nM; in data set [3], 525 nM; in [4], 232 nM; in data set [8], 72.3 nM; in data set [13] it was 199 nM. Besides, the half-life in [6] is 8.64 h. Further, the result in data set [7] and in [15] was Active. In addition, the inhibition in vivo at 10 mg/kg/day in data set [9] was 72.5%. The same molecule gave an AUC(0-inf) in data set [10] of 4420 ng·h/mL. Further, the Cmax in [11] came out at 1220 ng/mL. For the same molecule, the DC50 in data set [12] stood at 255 nM. Besides, in [14], the Kd turned out to be 3.7 nM.

In general, IC50 refers to the concentration at which inhibition is half-maximal. The term half-life denotes the time in which the quantity being followed falls by half. For orientation: AUC(0-inf) means total exposure, with the tail of the curve extrapolated. Broadly, the Cmax is the peak of the concentration-time curve. The term DC50 denotes the midpoint of the concentration-degradation curve. By Kd is commonly meant the free concentration of one partner at which half of the binding sites on the other are occupied at equilibrium, for simple one-to-one binding.
